# Data taken from PMC3118832 (Clinical Therapeutics, 2011).
# Where two headings read alike, the source gives them in different places.
# Assays:
# [1] = cited from earlier work; for enzymatic autoinduction: administered continuously over several days; for CL/F / Vd/F / t1/2: healthy Vietnamese male volunteers, single oral administration, mean
# [2] = clinical; conditions: human, in vivo
# Description: The study was conducted at HTD-HCMC. The clinical trial protocol was reviewed and supported by the internal Scientific and Ethical Committee of the HTD-HCMC and Oxford Tropical Research Ethics Committee (OxTREC 019-06), University of Oxford, Oxford, United Kingdom. The volunteers were randomly assigned to 1 of the 24 possible sequences for the 4 treatment groups (Table I). […] A fixed tablet combination of piperaquine and the reference Vietnamese formulation is not commercially available and could not be included in this trial.
# Study drug was administered with 200 mL of drinking water after an overnight fast of >10 hours, according to US Food and Drug Administration (FDA) guidelines for bioequivalence studies.[30] The volunteers were asked to continue fasting for 2 hours after drug administration. Beverages containing caffeine or alcohol were not allowed on days of drug administration and blood sampling. […] Tolerability was assessed daily by the clinician during each study occasion (using an adverse-event report form) and at the follow-up visit 1 week after last study occasion (using an adverse-event report form and laboratory assessment). Adverse events were accessed by using an open question about potential health problems during the study and followed up with a questionnaire if any health problems had occurred since the last consultation.
# An intravenous indwelling cannula was introduced and maintained in the antecubital vein and kept for 12 hours during blood sample collection at each study visit. A blood volume of 0.5 mL was discarded before sample collection to avoid drug dilution effects. A5-mL blood sample was drawn into lithium heparin tubes (Hong Thien My Medical Equipment Joint Stock Co., Ho Chi Minh City, Vietnam) before drug administration (predose) and at the following times after drug administration (postdose): 0.25, 0.5, 1, 1.5, 2, 2.5, 3, 4, 5, 6, 7, 8, 10, and 12 hours. The same time schedule was followed for all study visits. Saline solution (0.9% sodium chloride, 2 mL) was used to flush the lines after blood collection. Blood samples were immediately centrifuged at 3000g for 10 minutes at 20°C. Plasma were transferred to cryotubes within 10 minutes after centrifugation and stored directly at –70°C. All samples were freighted to Thailand on dry ice and analyzed by the Clinical Pharmacology Laboratory at Mahidol–Oxford Tropical Medicine Research Unit (Bangkok, Thailand).
# The LC-MS/MS system consisted of an Agilent 1200 LC system including an autosampler set at 4°C and a column oven set at 40°C (Agilent Technologies Inc., Santa Clara, California) coupled with an API 5000 triple quadrupole mass spectrometer (Applied Biosystems/MDS SCIEX, Foster City, California). The lower limit of quantitation was set to 1.03 ng/mL, with a limit of detection of 0.257 ng/mL. […] Three independent quality-control samples in plasma (2.89, 40.7, and 571 ng/mL) were prepared fresh and analyzed in triplicate in each batch of extracted plasma samples. All samples were kept on ice until loaded onto the solid-phase extraction plate. The extracted samples were injected directly (5 μL) into the LC-MS/MS system.
# AUC0–last values were calculated using the linear trapezoidal method for ascending concentrations and the logarithmic trapezoidal method for descending concentrations.[33] […] Cmax and Tmax concentrations were taken directly from the observed data. Vd/F and CL/F were computed individually according to standard procedures and summarized for each treatment group. […]
# [3] = Tolerability: adverse-event reports and laboratory assessment at follow-up; assay type: in vivo, human
# Description: Fifteen healthy Vietnamese male volunteers aged 18 to 55 years were enrolled in the study. No female subjects were enrolled to avoid potential risks of adverse effects on the fetus during early pregnancy. The study design and potential adverse drug effects were explained to all volunteers in their own language before initiation of any study-related procedures. Volunteers who provided written informed consent were considered for enrollment. Clinical and laboratory screenings were performed at the Hospital for Tropical Diseases in Ho Chi Minh City (HTD-HCMC), Vietnam, and the results evaluated before enrollment. Clinical evaluation and laboratory assessment (full hematology and biochemistry) were also performed at follow-up 1 week after the last study visit.
# [4] = posttreatment (follow-up 1 week after last visit), mean (SD)
smiles,measurement,setting,value
CO[C@H]1O[C@@H]2O[C@@]3(C)CC[C@H]4[C@H](C)CC[C@@H]([C@H]1C)[C@@]24OO3 [artemether],enzymatic autoinduction,[1],marked ability for enzymatic autoinduction
C[C@@H]1CC[C@H]2[C@@H](C)C(=O)O[C@@H]3O[C@@]4(C)CC[C@@H]1[C@]32OO4 [artemisinin],CL/F,[1]; ref 31,127 mL/min/kg
same,Vd/F,[1]; ref 31,35.9 L/kg
same,t1/2,[1]; ref 31,2.10 h
same,CL/F,[1]; ref 35,85 mL/min/kg
same,Vd/F,[1]; ref 35,19.4 L/kg
same,t1/2,[1]; ref 35,2.59 h
same,CL/F,[1]; ref 36,89.7 mL/min/kg
same,Vd/F,[1]; ref 36,16.4 L/kg
same,t1/2,[1]; ref 36,2.51 h
same,bioavailability,[1]; in vivo,< 30%
same,oral clearance in smokers compared with nonsmokers,[2]; po,significantly higher
same,CL/F,[2]; male,121 mL/min/kg
same,Vd,[2]; male,1320 L
same,Vd/F,[2]; male,22.8 L/kg
same,half-life,[2]; male,2.23 h
same,tolerability / adverse events,"[3]; 15 healthy volunteers, single oral doses",no adverse events were reported
same,volunteers with higher aspartate aminotransferase at follow-up compared with baseline,[3]; levels still in the normal range,Six of the 15
same,Urea,"[3]; posttreatment (follow-up 1 week after last of 4 single-dose visits), mean (SD)",5.36 (1.5) [2.4–7.2] mM
same,ALT,[3]; [4],44.7 (25) [15–120] U/L
same,AST,[3]; [4],29.1 (16) [19–80] U/L
same,Albumin,[3]; [4],39.7 (4.2) [30–46] g/L
same,Basophils,[3]; [4],1.12 (0.49) [0.23–2.1] %
same,Eosinophils,[3]; [4],5.34 (3.2) [1.6–13] %
same,Erythrocytes,[3]; [4],5.23 (0.49) [4.6–6.1] 10^12/L
same,Ferritin,[3]; [4],117 (36) [69–190] μg/L
same,Globulin,[3]; [4],37.7 (6.5) [30–47] g/L
same,Glucose,[3]; [4],3.91 (0.35) [3.5–4.4] mM
same,Hematocrit,[3]; [4],47.7 (2.5) [45–53] %
same,Hemoglobin,[3]; [4],15.6 (0.78) [15–18] g/dL
same,Leukocytes,[3]; [4],7.62 (1.5) [5.4–10] 10^9/L
same,Lymphocytes,[3]; [4],32.5 (6.2) [21–43] %
same,Magnesium,[3]; [4],0.896 (0.17) [0.70–1.1] mM
same,Monocytes,[3]; [4],7.47 (1.4) [5.3–10] %
same,Neutrophils,[3]; [4],53.7 (6.5) [45–63] %
same,Reticulocytes,[3]; [4],0.700 (0.34) [0.10–1.5] %
same,Thrombocytes,[3]; [4],258 (59) [130–330] 10^9/L
same,Total bilirubin,[3]; [4],16.1 (4.0) [9.0–20] μM
same,Total protein,[3]; [4],77.3 (5.1) [67–82] g/L
C[C@H]1[C@@H](O)O[C@@H]2O[C@@]3(C)CC[C@H]4[C@H](C)CC[C@@H]1[C@@]24OO3 [dihydroartemisinin],enzymatic autoinduction,[1],not
